Measured values taken from patent US20020051978A1, “Methods and compositions for the identification, assessment, prevention and therapy of human cancers” (priority 2000, published 2002).
Values joined by “and” are separate entries in the source; they are usually repeats but may differ in a detail not shown here. Identical values can stand only once. Like-named read-outs stand apart in the source and are kept apart here.

Legend:
[1] = tested on: 60 cancer cell lines (NCI 60 cancer cell line series); assay: NCI-DTP in vitro cancer screen, sulforhodamine B (SRB) growth inhibition, 48 hour exposure; format: cell-based, human; set-up: key to sensitivity class Ovarian OVCAR-8 CL6005 / sensitivity class Ovarian SK-OV-3 CL6011 / sensitivity class Prostate DU-145 CL11003 / sensitivity class NSCLC NCI-H522 CL1003 / sensitivity class Ovarian IGROV1 CL6010 / sensitivity class Ovarian OVCAR-4 CL6002 / sensitivity class Prostate PC-3(I) CL11001 / sensitivity class Renal A498 CL9013 / sensitivity class Renal SN12C CL9008: sensitivity class: 1 = Low, 2 = Medium, 3 = High; details: for sensitivity class NSCLC NCI-H23(I) CL1001: cell line NSCLC NCI-H23(I); for sensitivity class NSCLC NCI-H460 CL1021: cell line NSCLC NCI-H460, CL1021; for sensitivity class NSCLC NCI-H522 CL1003: cell line NSCLC NCI-H522, CL1003; for sensitivity class Ovarian OVCAR-4 CL6002: cell line Ovarian OVCAR-4, CL6002; for sensitivity class Ovarian OVCAR-5 CL6003: cell line Ovarian OVCAR-5, CL6003; for sensitivity class Ovarian OVCAR-8 CL6005: cell line Ovarian OVCAR-8, CL6005; for sensitivity class Prostate DU-145 CL11003: cell line Prostate DU-145, CL11003; for sensitivity class Renal A498 CL9013: cell line Renal A498, CL9013; for sensitivity class Renal RXF-393 CL9016: cell line Renal RXF-393, CL9016; for sensitivity class Renal UO-31 CL9004: cell line Renal UO-31, CL9004
How it was run: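 Values come from the NCI-DTP screen database: -log GI50, the concentration giving 50% growth inhibition, derived from SRB cell-mass dose-response curves. Each line seeded at its own density, treated day 1 at five ten-fold-spaced doses in duplicate wells, stained after 48 h.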

[2] = tested on: 60 cancer cell lines (NCI 60 cancer cell line series); details: cited from earlier work

CC[C@@]1(O)C(=O)OCc2c1cc1n(c2=O)Cc2cc3c(CN(C)C)c(O)ccc3nc2-1 [Topotecan]
6.2 and 6.3: -Log (GI50) ([2]; Colon HCT-15 CL4015)
7.2 and 7.5: -Log (GI50) ([2]; Melanoma SK-MEL-5 (CL10007))
7.7 and 7.8: -Log (GI50) ([2]; CNS SF-539 CL12016) | -Log (GI50) ([2]; Melanoma LOX IMVI CL10001) | -Log (GI50) ([2]; Renal ACHN CL9023)
8.0 and 7.7: -Log (GI50) ([2]; Breast T-47D (CL5014))
7.0 and 7.3: -Log (GI50) ([2]; NSCLC A549/ATCC (CL1004))
7.0 and 7.2: -Log (GI50) ([2]; Renal UO-31 CL9004)
7.7: -Log (GI50) ([2]; CNS SF-268 CL12014) | -Log (GI50) ([2]; NSCLC NCI-H460 CL1021)
7.5 and 7.6: -Log (GI50) ([2]; CNS SNB-19 (CL12002))
7.8 and 7.7: -Log (GI50) ([2]; Melanoma UACC-62 (CL10020))
3: classification of cell line as Low(1), Medium(2) or High(3) sensitivity to compound ([1]; Breast T-47D (CL5014)) | classification of cell line as Low(1), Medium(2) or High(3) sensitivity to compound ([1]; CNS SF-268 CL12014) | classification of cell line as Low(1), Medium(2) or High(3) sensitivity to compound ([1]; CNS SF-539 CL12016) | classification of cell line as Low(1), Medium(2) or High(3) sensitivity to compound ([1]; Leukemia CCRF-CEM(I) (CL7003)) | classification of cell line as Low(1), Medium(2) or High(3) sensitivity to compound ([1]; Leukemia MOLT-4 (CL7006)) | classification of cell line as Low(1), Medium(2) or High(3) sensitivity to compound ([1]; Melanoma LOX IMVI CL10001) | classification of cell line as Low(1), Medium(2) or High(3) sensitivity to compound ([1]; NSCLC HOP-62 (CL1026)) | sensitivity class NSCLC NCI-H460 CL1021 [1] | sensitivity class Prostate DU-145 CL11003 [1] | sensitivity class Renal 786-O CL9018 ([1]; cell line Renal 786-O, CL9018) | sensitivity class Renal ACHN CL9023 ([1]; cell line Renal ACHN, CL9023) | sensitivity class Renal CAKI-1 CL9015 ([1]; cell line Renal CAKI-1, CL9015)
5.1 and 5.3: -Log (GI50) ([2]; Renal TK10 CL9024)
6.5 and 6.4: -Log (GI50) ([2]; Colon KM12 (CL4017))
8.0 and 7.8: -Log (GI50) ([2]; Breast MCF7(I) (CL5001)) | -Log (GI50) ([2]; Prostate DU-145 CL11003)
7.6 and 7.5: -Log (GI50) ([2]; Renal SN12C CL9008)
7.5 and 7.8: -Log (GI50) ([2]; CNS U251(I) CL12009) | -Log (GI50) ([2]; Melanoma M14 (CL10014))
5.7 and 6.0: -Log (GI50) ([2]; Melanoma SK-MEL-2 (CL10005))
7.9 and 7.8: -Log (GI50) ([2]; Renal CAKI-1 CL9015)
7.9: -Log (GI50) ([2]; Leukemia CCRF-CEM(I) (CL7003)) | -Log (GI50) ([2]; Leukemia MOLT-4 (CL7006)) | -Log (GI50) ([2]; NSCLC HOP-62 (CL1026))
7.3 and 7.5: -Log (GI50) ([2]; NCSLC NCI-H522 CL1003)
2: classification of cell line as Low(1), Medium(2) or High(3) sensitivity to compound ([1]; Breast MDA-MB-435 (CL5011)) | classification of cell line as Low(1), Medium(2) or High(3) sensitivity to compound ([1]; Breast MDA-N CL5012) | classification of cell line as Low(1), Medium(2) or High(3) sensitivity to compound ([1]; CNS SNB-19 (CL12002)) | classification of cell line as Low(1), Medium(2) or High(3) sensitivity to compound ([1]; CNS SNB-75(I) CL12005) | classification of cell line as Low(1), Medium(2) or High(3) sensitivity to compound ([1]; Colon HCT-116 (CL4003)) | classification of cell line as Low(1), Medium(2) or High(3) sensitivity to compound ([1]; Colon HT29(I) CL4001) | classification of cell line as Low(1), Medium(2) or High(3) sensitivity to compound ([1]; Colon SW-620 (CL4009)) | classification of cell line as Low(1), Medium(2) or High(3) sensitivity to compound ([1]; Leukemia K562(I) CL7005) | classification of cell line as Low(1), Medium(2) or High(3) sensitivity to compound ([1]; Leukemia RPMI-8226(I) (CL7010)) | classification of cell line as Low(1), Medium(2) or High(3) sensitivity to compound ([1]; Melanoma MALME-3M CL10002) | classification of cell line as Low(1), Medium(2) or High(3) sensitivity to compound ([1]; Melanoma SK-MEL-5 (CL10007)) | classification of cell line as Low(1), Medium(2) or High(3) sensitivity to compound ([1]; Melanoma UACC-257 (CL10021)) | classification of cell line as Low(1), Medium(2) or High(3) sensitivity to compound ([1]; NSCLC A549/ATCC (CL1004)) | classification of cell line as Low(1), Medium(2) or High(3) sensitivity to compound ([1]; NSCLC HOP-92 (CL1029)) | classification of cell line as Low(1), Medium(2) or High(3) sensitivity to compound ([1]; NSCLC NCI-H226 CL1013) | sensitivity class NSCLC NCI-H23(I) CL1001 [1] | sensitivity class NSCLC NCI-H522 CL1003 [1] | sensitivity class Ovarian OVCAR-5 CL6003 [1] | sensitivity class Ovarian OVCAR-8 CL6005 [1] | sensitivity class Ovarian SK-OV-3 CL6011 ([1]; cell line Ovarian SK-OV-3, CL6011) | sensitivity class Prostate PC-3(I) CL11001 ([1]; cell line Prostate PC-3(I), CL11001) | sensitivity class Renal A498 CL9013 [1] | sensitivity class Renal RXF-393 CL9016 [1] | sensitivity class Renal UO-31 CL9004 [1]
6.7 and 7.0: -Log (GI50) ([2]; Renal A498 CL9013)
6.3 and 6.4: -Log (GI50) ([2]; Ovarian IGROV1 CL6010)
1: classification of cell line as Low(1), Medium(2) or High(3) sensitivity to compound ([1]; Breast HS-578T CL5006) | classification of cell line as Low(1), Medium(2) or High(3) sensitivity to compound ([1]; Breast MDA-MB-231 CL5005) | classification of cell line as Low(1), Medium(2) or High(3) sensitivity to compound ([1]; Colon COLO-250 CL4010) | classification of cell line as Low(1), Medium(2) or High(3) sensitivity to compound ([1]; Colon HCT-15 CL4015) | classification of cell line as Low(1), Medium(2) or High(3) sensitivity to compound ([1]; Melanoma SK-MEL-2 (CL10005)) | classification of cell line as Low(1), Medium(2) or High(3) sensitivity to compound ([1]; Melanoma SK-MEL-28 (CL10008)) | sensitivity class Ovarian OVCAR-4 CL6002 [1] | sensitivity class Renal TK10 CL9024 ([1]; cell line Renal TK10, CL9024)
7.4: -Log (GI50) ([2]; NSCLC NCI-H23(I) CL1001)
7.1 and 7.2: -Log (GI50) ([2]; Ovarian SK-OV-3 CL6011)

N.N.[Cl][Pt][Cl] [cisplatin, cis-Diamminedichloroplatinum (II), reference compound]
5.2: -Log (GI50) ([2]; Ovarian SK-OV-3 CL6011)
1: classification of cell line as Low(1), Medium(2) or High(3) sensitivity to compound ([1]; Breast MDA-MB-231 CL5005) | classification of cell line as Low(1), Medium(2) or High(3) sensitivity to compound ([1]; Breast T-47D (CL5014)) | classification of cell line as Low(1), Medium(2) or High(3) sensitivity to compound ([1]; Colon COLO-250 CL4010) | classification of cell line as Low(1), Medium(2) or High(3) sensitivity to compound ([1]; Colon HCT-15 CL4015) | classification of cell line as Low(1), Medium(2) or High(3) sensitivity to compound ([1]; Colon HT29(I) CL4001) | sensitivity class Renal A498 CL9013 [1]
3: classification of cell line as Low(1), Medium(2) or High(3) sensitivity to compound ([1]; CNS SF-268 CL12014) | classification of cell line as Low(1), Medium(2) or High(3) sensitivity to compound ([1]; Leukemia HL-60(I) (CL7008)) | classification of cell line as Low(1), Medium(2) or High(3) sensitivity to compound ([1]; Melanoma LOX IMVI CL10001) | sensitivity class NSCLC NCI-H23(I) CL1001 [1] | sensitivity class NSCLC NCI-H460 CL1021 [1]
5.5: -Log (GI50) ([2]; Breast MCF7(I) (CL5001))
2: classification of cell line as Low(1), Medium(2) or High(3) sensitivity to compound ([1]; Breast BT-549 (CL5013)) | classification of cell line as Low(1), Medium(2) or High(3) sensitivity to compound ([1]; Breast HS-578T CL5006) | classification of cell line as Low(1), Medium(2) or High(3) sensitivity to compound ([1]; Breast MCF7/ADRr (CL5002)) | classification of cell line as Low(1), Medium(2) or High(3) sensitivity to compound ([1]; Breast MDA-N CL5012) | classification of cell line as Low(1), Medium(2) or High(3) sensitivity to compound ([1]; CNS SF-539 CL12016) | classification of cell line as Low(1), Medium(2) or High(3) sensitivity to compound ([1]; CNS SNB-75(I) CL12005) | classification of cell line as Low(1), Medium(2) or High(3) sensitivity to compound ([1]; CNS U251(I) CL12009) | classification of cell line as Low(1), Medium(2) or High(3) sensitivity to compound ([1]; Colon HCC-2998 (CL4002)) | classification of cell line as Low(1), Medium(2) or High(3) sensitivity to compound ([1]; Colon SW-620 (CL4009)) | classification of cell line as Low(1), Medium(2) or High(3) sensitivity to compound ([1]; Leukemia K562(I) CL7005) | classification of cell line as Low(1), Medium(2) or High(3) sensitivity to compound ([1]; Leukemia RPMI-8226(I) (CL7010)) | classification of cell line as Low(1), Medium(2) or High(3) sensitivity to compound ([1]; Melanoma M14 (CL10014)) | sensitivity class NSCLC NCI-H522 CL1003 [1] | sensitivity class Ovarian IGROV1 CL6010 ([1]; cell line Ovarian IGROV1, CL6010) | sensitivity class Ovarian OVCAR-4 CL6002 [1] | sensitivity class Ovarian OVCAR-5 CL6003 [1] | sensitivity class Ovarian OVCAR-8 CL6005 [1] | sensitivity class Prostate DU-145 CL11003 [1] | sensitivity class Renal RXF-393 CL9016 [1] | sensitivity class Renal UO-31 CL9004 [1]
